Source: US11840706B2, “Composition and method for generating a desired cell type and/or tissue type from hair follicular stem cells” (priority 2013, dated 2023)
Entries after “also recorded” stand apart in the source; their conditions may differ.

Tested on: keratinocytes
Assay: Effect of vanadium compounds on proliferation of keratinocytes (hair follicle culture, cell count)
Assay type: cell-based
Settings: 14 days culture; for amount of proliferated keratinocytes relative to the control situation: 1 mg/ml in basic SFK growth medium, 31° C., control = SFK medium lacking a vanadium compound
Method: Method: Hair follicles were transferred to a 24-well culture disk containing dSFK with 500 mg/ml penicillin (Life Technologies B.V. Breda, The Netherlands) and 0.25 μg/ml streptomycin (Life Technologies B.V. Breda, The Netherlands), and placed for 14 days in a culture medium at 31° C. in a humidified atmosphere containing 5% CO2. Three different culture medium were used: • Treatment group oxovanadium (OVAN): The culture medium is a composition comprising a basic SFK growth serum (purchased from the supplier SFK, Enschede The Netherlands) supplemented with either 1 mg/ml of OVAN. • Treatment group bis (maltolato) oxovanadium (BMOV): The culture medium is a composition comprising a basic SFK growth serum (purchased from the supplier SFK, Enschede The Netherlands) supplemented with either 1 mg/ml of BMOV. • Control group: The control situation consists of a composition comprising the SFK basic growth serum but without the vanadium compounds (i.e. OVAN or BMOV).
The respective culture media were carefully removed every three days and replaced by fresh culture media. The cells remained attached to the hair follicles during this culture period. After 14 days the culture medium was removed and replaced by a 0.5 mg/ml trypsin, 0.2 mg/ml EDTA (ethylene diaminetetraacetic acid) solution (Life Technologies B.V. Breda, The Netherlands), and incubated for 5 minutes at 37° C. in this medium. After this incubation period clusters of cells were released from the hair follicles. These were harvested by centrifugation at 300 g at 4° C. for 5 minutes in an Eppendorf 5804R Centrifuge (VWR International, The Netherlands). Number of cells were counted and expressed as amount of proliferated cells per ml of culture medium.

Compound | proliferation of keratinocytes, BMOV compared with OVAN (1 mg/ml each) | amount of proliferated keratinocytes relative to the control situation
Cc1occc(=O)c1[O-].Cc1occc(=O)c1[O-].[O]=[V+2] [BMOV, bis(maltolato) oxovanadium] | greater number of proliferated cells relative to treatment with OVAN; also recorded: more potent than OVAN | enhanced proliferation; also recorded: significantly increased
oxovanadium | – | enhanced proliferation; also recorded: significantly increased
